Source: article PMC7531004, “Discovery of gramicidin A analogues with altered activities by multidimensional screening of a one-bead-one-compound library” (Nature Communications, 2020)
Where a SMILES comes first, the peptide text is derived from it. [ ]: non-standard residue; d: D form. The star is where a group is joined. NHCH2CH2OH = OCCN*; For = O=C*

What was measured:
[1] = H+/Na+ transport assay of bead-derived peptides (one-point); type: biochemical; set-up: key: relative activity; mean of two control wells = 1.00; details: bead-derived peptide solution, EYPC/EYPG LUVs;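 further: relative to parent gramicidin A activity set to 1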
In short: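 Pyranine (1.0 mM)-loaded LUVs containing egg yolk phosphatidylglycerol were prepared by film hydration, sonication and extrusion, then mixed with diluted bead-derived peptide in 96-well format and vortexed 30 min at room temperature. Fluorescence was normalized between untreated LUVs (0%) and Triton X-100 lysis (100%).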

[2] = system: P388 mouse leukemia cells; details: 92 h
In short: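 First, library peptide stocks are diluted 250-fold in RPMI1640 with 10% heat-inactivated FBS. Next, they are mixed with P388 cells to give 1 × 10^4 cells/mL and incubated 92 h at 37 °C, 5% CO2. Finally, viability (%) is scored by WST-1 absorbance at 415 nm.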

[3] = system: Streptococcus pyogenes SSI-9; assay: Antibacterial activity assay of bead-derived peptides (three concentrations); type: cell-based; set-up: key: +++: inhibition by the 640-fold diluted peptide solution; ++: inhibition by the 160-fold diluted solution; +: inhibition by the 40-fold diluted solution; -: no inhibition; details: S. pyogenes, bead-derived peptide solution, three concentrations
In short: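 Three stock dilutions per peptide (none, 4-fold, 16-fold in DMSO) are screened in 96-well format. The medium is blood-supplemented cation-adjusted MHB, inoculated with 2 × 10^5 CFU S. pyogenes SSI-9. Growth is read as cell precipitation at 18 h, 37 °C.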

Structure (SMILES) | H+/Na+ transport activity normalized against the value of 1 (1.00) [1] | cell viability/% [2] [%] | antibacterial activity [3]
CC(C)C[C@@H](NC(=O)[C@H](Cc1c[nH]c2ccccc12)NC(=O)[C@H](NC(=O)[C@H](Cc1c[nH]c2ccccc12)NC(=O)[C@H](NC(=O)[C@@H](NC(=O)[C@H](NC(=O)[C@H](C)NC(=O)[C@H](NC(=O)[C@H](C)NC(=O)CNC(=O)[C@@H](NC=O)C(C)C)C(C)C)C(C)C)C(C)C)C(C)C)C(C)C)C(=O)N[C@@H](Cc1c[nH]c2ccccc12)C(=O)N[C@@H](C(=O)N[C@@H](Cc1c[nH]c2ccccc12)C(=O)NCCO)C(C)C [compound 5678] (For-VGA[dV]A[dV]V[dV]W[dV]W[dL]W[dV]W-NHCH2CH2OH) | 1.11 | 93.2 | ++
CC(C)C[C@@H](NC(=O)[C@@H](NC(=O)[C@H](NC(=O)[C@H](C)NC(=O)[C@H](NC(=O)[C@H](C)NC(=O)CNC(=O)[C@@H](NC=O)C(C)C)C(C)C)C(C)C)C(C)C)C(=O)N[C@@H](Cc1c[nH]c2ccccc12)C(=O)N[C@@H](C(=O)N[C@@H](Cc1c[nH]c2ccccc12)C(=O)N[C@@H](C(=O)N[C@@H](Cc1c[nH]c2ccccc12)C(=O)N[C@@H](C(=O)N[C@@H](Cc1c[nH]c2ccccc12)C(=O)NCCO)C(C)C)C(C)C)C(C)C [compound 1873] (For-VGA[dV]A[dV]V[dL]W[dV]W[dV]W[dV]W-NHCH2CH2OH) | 1.09 | 100.0 | -
CC(C)C[C@@H](NC(=O)[C@H](C)NC(=O)CNC(=O)[C@@H](NC=O)C(C)C)C(=O)N[C@@H](C)C(=O)N[C@@H](C(=O)N[C@H](C(=O)N[C@@H](C(=O)N[C@@H](Cc1c[nH]c2ccccc12)C(=O)N[C@H](CC(C)C)C(=O)N[C@@H](Cc1c[nH]c2ccccc12)C(=O)N[C@@H](C(=O)N[C@@H](Cc1c[nH]c2ccccc12)C(=O)N[C@H](CC(C)C)C(=O)N[C@@H](Cc1c[nH]c2ccccc12)C(=O)NCCO)C(C)C)[C@H](C)O)C(C)C)C(C)C [compound 4279] (For-VGA[dL]A[dV]V[dT]W[dL]W[dV]W[dL]W-NHCH2CH2OH) | 1.05 | 98.8 | -
CNC(=O)C[C@@H](NC(=O)[C@H](Cc1c[nH]c2ccccc12)NC(=O)[C@@H](CC(C)C)NC(=O)[C@H](Cc1c[nH]c2ccccc12)NC(=O)[C@@H](CC(C)C)NC(=O)[C@H](Cc1c[nH]c2ccccc12)NC(=O)[C@H](NC(=O)[C@@H](NC(=O)[C@H](NC(=O)[C@H](C)NC(=O)[C@@H](CC(C)C)NC(=O)[C@H](C)NC(=O)CNC(=O)[C@@H](NC=O)C(C)C)C(C)C)C(C)C)C(C)C)C(=O)N[C@@H](Cc1c[nH]c2ccccc12)C(=O)NCCO [compound 2020] (For-VGA[dL]A[dV]V[dV]W[dL]W[dL]W[dD](NHMe)W-NHCH2CH2OH) | 1.02 | 100.0 | -
CC(C)C[C@@H](NC(=O)[C@H](Cc1c[nH]c2ccccc12)NC(=O)[C@H](NC(=O)[C@H](Cc1c[nH]c2ccccc12)NC(=O)[C@@H](CC(C)C)NC(=O)[C@@H](NC(=O)[C@H](NC(=O)[C@H](C)NC(=O)[C@H](NC(=O)[C@H](C)NC(=O)CNC(=O)[C@@H](NC=O)C(C)C)[C@H](C)O)C(C)C)C(C)C)C(C)C)C(=O)N[C@@H](Cc1c[nH]c2ccccc12)C(=O)N[C@@H](C(=O)N[C@@H](Cc1c[nH]c2ccccc12)C(=O)NCCO)C(C)C [compound 4187] (For-VGA[dT]A[dV]V[dL]W[dV]W[dL]W[dV]W-NHCH2CH2OH) | 1.32 | 95.1 | -
